Measurements from US6133311A, “Method for preventing or treating elevated blood lipid level-related diseases by administering natural phenolic compounds” (priority 1998, dated 2000).

Tests used:
[1] = acute oral toxicity in mice; format: in vivo, ICR mice; conditions: for toxicity: oral, mouse, single dose 5,000 mg/kg
Protocol: Toxicity of Orally Administered tannin, gallic acid or ellagic acid
36 seven-week-old, specific pathogen-free ICR […] female mice each weighing about 25 to 29 g and 18 male mice each weighing about 34 to 38 9, were kept under an environment of 22±1° C., 55±5% relative humidity and 12L/12D photoperiod. Fodder (Cheiljedang Co., mouse and rat fodder) and water were sterilized and fed to the mice.
Tannin, gallic acid or ellagic acid purchased from Aldrich-Sigma Chemical Co. (St. Louis, Mo., U.S.A) was dissolved in 0.5% Tween 80 to a concentration of 500 mg/ml, and the solution was orally administered to the mice in an amount of 0.2 ml per 20 g of mouse body weight. […] Further, on the 10th day, the mice were sacrificed and the internal organs were visually examined.

[2] = plasma cholesterol, HDL-cholesterol and neutral lipid levels in rats fed a high-cholesterol diet; format: in vivo, Sprague-Dawley rats; conditions: six weeks; for HDL-C/Total-C ratio higher than in the control group / neutral lipid content lower than in the Control group / total plasma cholesterol level lower than in the Control group: 0.1% in diet; for HDL-C / Total-C / HDL-C (HDL-cholesterol) / TG (triglyceride) / Total-C (total cholesterol): 1% cholesterol plus 0.1% compound in diet; for HDL-C / Total-C: Control 28; for HDL-C (HDL-cholesterol): Control 38 ± 2; for TG (triglyceride): Control 98 ± 5; for Total-C (total cholesterol): Control 135 ± 6
Text: Effect of Tannin, Gallic acid or Ellagic acid on Plasma Cholesterol, HDL-Cholesterol and Neutral Lipid Levels
(Step 1) Administration of tannin or gallic acid to rats
30 three-week-old white Sprague-Dawley rats (Taihan laboratory animal center, Korea), each weighing about 90 to 110 g, were evenly divided into three dietary groups by a randomized block design. The rats of the three groups were fed with three different high-cholesterol diets, i.e., AIN-76 laboratory animal diet (ICN Biochemicals, Cleveland, Ohio, U.S.A.) containing 1% cholesterol (Control group), 1% cholesterol plus 0.1% tannin group (tannin group) and 1% cholesterol plus 0.1% gallic acid, respectively.
The rats were allowed to feed freely on the specified diet together with water for six weeks, the ingestion amount was recorded daily and the rats were weighed every 7 days, and then the record was analyzed.
(Step 2) Determination of total cholesterol, HDL-cholesterol and neutral lipid content in blood
The effects of administering tannin or gallic acid to rats on the plasma cholesterol and neutral lipid contents were determined as follows.
The rats of the three dietary groups obtained in Step 1 were sacrificed and blood samples were taken therefrom. The blood was allowed to stand for 2 hours and centrifuged at 3,000 rpm for 15 minutes and the supernatant was separated and stored in a deep freezer before use. The chemical analysis of blood was carried out by employing a blood chemical analyzer (CIBA Corning 550 Express, USA) to determine the changes in total cholesterol, HDL-cholesterol and triglyceride levels.

Row | Molecule | weight loss ([1]; oral 5,000 mg/kg, 10 day test period) | pathological abnormality at autopsy ([1]; oral 5,000 mg/kg, day 10) | survival ([1]; oral 5,000 mg/kg, day 10) | toxicity [1] | HDL-C/Total-C ratio higher than in the control group [2] | neutral lipid content lower than in the Control group [2] | total plasma cholesterol level lower than in the Control group [2] | HDL-C / Total-C [2] | HDL-C (HDL-cholesterol) [2] | TG (triglyceride) [2] | Total-C (total cholesterol) [2]
1 | O=C(O)c1cc(O)c(O)c(O)c1 [Gallic acid, gallic acid] | no weight loss | had not developed any pathological abnormality | All the mice were alive at day 10 | no toxicity | 21% | 22% | 31% | 34% | 32 ± 3 mg/dL | 77 ± 4 mg/dL | 93 ± 5 mg/dL
2 | tannin |  |  |  | no toxicity | 54% | 21% | 35% | 43% | 37 ± 2 mg/dL | 76 ± 3 mg/dL | 88 ± 4 mg/dL
